Counter-ions that a name gives are not always drawn.
What was measured:
[1] = tested on: mutant forms of GAA in Pompe patient-derived fibroblasts; assay: Level of mutant GAA in Pompe patient-derived fibroblasts; format: cell-based, human; conditions: data not shown
[2] = tested on: mutant forms of recombinant human GAA in COS-7 cells; assay: Level of mutant GAA in transiently-transfected COS-7 cells; format: cell-based; conditions: COS-7 cells transiently-transfected with recombinant human GAA; data not shown
alpha-galactosidase = target: T1, alpha-galactosidase (Mus musculus, UniProt P51569); assay: Specificity: alpha-galactosidase in mice administered DNJ; format: in vivo; conditions: data not shown
T1 construct: from tissue
T1 sequence (P51569 32-419): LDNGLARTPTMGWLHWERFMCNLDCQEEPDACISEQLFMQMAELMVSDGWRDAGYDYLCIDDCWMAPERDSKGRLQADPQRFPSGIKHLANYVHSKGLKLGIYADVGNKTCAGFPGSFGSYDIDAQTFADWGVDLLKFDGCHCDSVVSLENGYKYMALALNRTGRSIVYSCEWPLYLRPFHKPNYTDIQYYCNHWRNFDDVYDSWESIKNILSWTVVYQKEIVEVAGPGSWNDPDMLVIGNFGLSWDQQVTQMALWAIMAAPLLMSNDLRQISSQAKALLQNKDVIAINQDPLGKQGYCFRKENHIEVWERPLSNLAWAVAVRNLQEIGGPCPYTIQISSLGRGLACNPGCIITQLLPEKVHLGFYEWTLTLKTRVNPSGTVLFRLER

GAA [3] = assay: GAA activity, protein and processing in monkeys administered DNJ orally; format: in vivo, cynologous monkeys; conditions: cynomolgus monkeys, data not shown
GAA [4] = target: T2, GAA (Mus musculus, UniProt P70699); assay: GAA activity, protein and processing in mice administered DNJ orally; format: in vivo; conditions: data not shown
T2 construct: from tissue

[5] = tested on: mutated form of GAA (M519V, P545L, G549R, L552P) in HEK293 cells; assay: GAA activity, protein and processing in HEK293 cells transiently-transfected with mutated GAA; format: cell-based; conditions: data not shown
hP545L GAA Tg/KO mice = assay: Biochemical assay for determining glycogen level (amyloglucosidase digestion) in tissues of DNJ-dosed hP545L GAA Tg/KO mice; format: in vivo, mouse; conditions: 'Moderate' hP545L GAA Tg/KO mice
Description: (§1) Mice were euthanized with CO2 and body weights were recorded. […] Plasma was collected by spinning blood at 2700 g for 10 minutes at 4° C. Heart, diaphragm, gastrocnemius, soleus, skin, and brain tissues were removed, washed in cold PBS, blotted dry, and weighed before storing on dry ice. For biochemical assays (GAA activity, glycogen and Western blotting), lysates were prepared by homogenizing ˜50 mg tissue for 3-5 seconds on ice with a micro homogenizer in 200 μL Lysis Buffer (25 mM Bis-Tris pH 6.5, 150 mM NaCl, 1% Triton X-100 pH 6.5). For histology assays, tissues were harvested and fixed immediately in 3.7% Formaldehyde/90% Ethanol mix. After fixation, the samples were processed in various grades (10, 20, 50, 75, 100%) of alcohol and embedded in paraffin.
Tissue glycogen levels were measured in supernatants of heat denatured (99° C. for 10 min.) lysates as prepared above for GAA assay. Samples were analyzed in duplicates by adding 4 μL of lysate to 36 μL water with and without 10 μL of 800 units/mL of amyloglucosidase enzyme (Sigma) and incubated for 1 hour at 50° C. The reaction was stopped by heat inactivation at 100° C. for 10 min. Finally 200 μL of glucose reagent was added to estimate the amount of glucose released at 340 nm absorbance on Spectramax. A glycogen standard curve ranging from 400 μg/mL to 5 μg/mL was run each day for conversion of absorbance data to absolute glycogen levels. Data are ultimately expressed as μg of glycogen cleaved/milligram of protein. The protein levels were measured in lysates (before denaturing) using Micro BCA Protein Assay Kit according to the manufacturer's instructions.
(§2) The dosing solutions were made fresh each week and water consumption was monitored daily.
(§3) After dosing was completed, mice were euthanized and plasma samples as well as tissue samples harvested as described above.
Mice were orally dosed (ad libitum in drinking water) either daily or using one of three less-frequent on/off regimens (i.e., (i) 3 days on/4 days off; (ii) 5 days on/2 days off; or (iii) 7 days on/7 days off). […] The dosing solution was made fresh each week and water consumption was monitored daily.
After dosing was completed, mice were euthanized and tissue samples harvested as described above.

hP545L GAA [6] = target: T3, hP545L GAA (Homo sapiens, UniProt P10253, P545L); assay: Biochemical assay for determining GAA level in tissues of DNJ-dosed hP545L GAA Tg/KO mice; format: in vivo; conditions: 'Moderate' hP545L GAA Tg/KO mice; DNJ 30, 100, 300 mg/kg/day oral ad libitum in drinking water, 4 weeks; disease-relevant tissues
Description: as §1, §2, §3

recombinant human GAA = recombinant human GAA (Homo sapiens, UniProt P10253); assay: Binding to and thermostability of recombinant human GAA in vitro; conditions: data not shown
Half-life of DNJ = conditions: stated within a theory on/off dosing, compared to GAA (days); no method
hP545L GAA [7] = target: T3, hP545L GAA; assay: GAA protein level by Western blotting in tissues of DNJ-dosed hP545L GAA Tg/KO mice; format: in vivo; conditions: 'Moderate' hP545L GAA Tg/KO mice; DNJ 30, 100, 300 mg/kg/day oral, 4 weeks; disease-relevant tissues
Description: as §1
Tissue lysates (50 μg total protein per lane) were subjected to SDS-PAGE on 12% gels (Bio-Rad, Hercules, Calif.), transferred to PVDF membranes (Bio-Rad), and immunoblotted with a rabbit anti-human GAA (kind gift of Dr. Barry Byrne) polyclonal antibody (1:500 dilution). Protein bands were detected using peroxidase-conjugated goat anti-rabbit secondary antibodies (1:1000) (Jackson Immunosearch Labs, West Grove, Pa.) in combination with enhanced chemiluminescence (Pierce). […]
as §2

[8] = target: human GAA missense mutations (Homo sapiens, UniProt P10253, P545L); assay: In vitro studies to identify a human GAA missense mutation responsive to DNJ; format: cell-based; conditions: 5-day incubation with DNJ, data not shown
[9] = tested on: human GAA missense mutations; assay: as above; format: cell-based; conditions: data not shown
[10] = DNJ 30, 100, 300 mg/kg/day oral, 4 weeks

T2 sequence (P70699 70-953): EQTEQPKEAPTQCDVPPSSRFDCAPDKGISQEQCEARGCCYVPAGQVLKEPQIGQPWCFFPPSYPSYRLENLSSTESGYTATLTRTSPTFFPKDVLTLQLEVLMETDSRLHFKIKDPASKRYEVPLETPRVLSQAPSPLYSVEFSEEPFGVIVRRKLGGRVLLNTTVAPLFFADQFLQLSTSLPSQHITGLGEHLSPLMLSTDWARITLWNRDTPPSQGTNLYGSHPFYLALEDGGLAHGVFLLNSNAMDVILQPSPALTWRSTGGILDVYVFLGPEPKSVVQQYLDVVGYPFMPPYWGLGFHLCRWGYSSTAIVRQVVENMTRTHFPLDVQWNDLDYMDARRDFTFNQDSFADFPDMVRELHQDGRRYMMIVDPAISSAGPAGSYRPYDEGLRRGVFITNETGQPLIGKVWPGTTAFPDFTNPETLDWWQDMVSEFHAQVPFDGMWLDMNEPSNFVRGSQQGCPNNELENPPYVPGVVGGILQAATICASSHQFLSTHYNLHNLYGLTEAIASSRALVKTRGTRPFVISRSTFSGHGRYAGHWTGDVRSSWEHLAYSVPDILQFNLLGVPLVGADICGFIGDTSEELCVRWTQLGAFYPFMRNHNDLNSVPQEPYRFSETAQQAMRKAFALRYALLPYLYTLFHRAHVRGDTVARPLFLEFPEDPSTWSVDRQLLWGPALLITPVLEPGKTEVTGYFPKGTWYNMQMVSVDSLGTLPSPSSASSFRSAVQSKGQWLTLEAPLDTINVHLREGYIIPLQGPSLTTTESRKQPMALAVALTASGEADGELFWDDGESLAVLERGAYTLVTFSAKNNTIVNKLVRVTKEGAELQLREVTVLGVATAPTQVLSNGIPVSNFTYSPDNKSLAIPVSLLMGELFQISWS

## OC[C@H]1NC[C@H](O)[C@@H](O)[C@@H]1O [DNJ, 1-deoxynojirimycin-HCl]
[1]
  level of multiple different mutant forms of GAA: significantly increase
[2]
  level of multiple different mutant forms of GAA: significantly increase
alpha-galactosidase
  alpha-galactosidase activity: no increase
GAA [3]; oral
  GAA activity: increase in a dose-dependent manner
GAA [3]
  GAA protein levels: increased
  processing to the 70-kDa mature form of GAA: increased
GAA [4]
  GAA protein levels: increased
  processing to the 70-kDa mature form of GAA: increased
GAA [4]; oral
  GAA activity: increase in a dose-dependent manner
[5]
  GAA processing to the 95-, 76-, and 70-kDa forms: increase
  GAA protein levels: increase
  level of GAA activity: increase
hP545L GAA Tg/KO mice; 100 mg/kg/day oral, 4 weeks, p<0.05 daily vs. on/off
  glycogen reduction, on/off regimens compared to daily dosing: greater glycogen reduction
hP545L GAA Tg/KO mice; 100 mg/kg/day oral, daily or on/off (3/4, 5/2, 7/7 days), 4 weeks, majority of tissues examined, p<0.05 vs. untreated
  glycogen levels in disease-relevant tissue: significant reduction
hP545L GAA Tg/KO mice; [10]
  glycogen levels of brain: robust reduction
  glycogen levels of diaphragm: moderate reduction
  glycogen levels of gastrocnemius: moderate reduction
  glycogen levels of heart: moderate reduction
  glycogen levels of skin: robust reduction
  glycogen levels of soleus: robust reduction
hP545L GAA Tg/KO mice; four-week oral administration (ad libitum), tissues overall
  tissue glycogen levels: decrease
hP545L GAA [6]
  GAA levels (tissue GAA activity): significant and dose-dependent increase
Recombinant human GAA
  binding to GAA: directly bind
  thermostability of recombinant human GAA: concentration-dependent increase
Half-life of DNJ
  half-life of DNJ: hours
hP545L GAA [7]
  GAA protein levels: significant and dose-dependent increase
  processing of GAA protein to its 76 kDa mature form: significant and dose-dependent increase
[8]
  GAA activity, P545L mutation: robust, reproducible, dose-dependent and statistically-significant increase
[9]
  responsiveness of P285R, E262K, E579K GAA mutations to DNJ: even more responsive than P545L
